Test results: article PMC10654576, “Isothermal chemical denaturation assay for monitoring protein stability and inhibitor interactions” (Scientific Reports, 2023)
Entries after “also recorded” stand apart in the source; their conditions may differ.

Key:
[1] = molecular target: T1, KRAS^G12V (Homo sapiens, UniProt P01116, G12V); experiment: FRET-Probe isothermal chemical denaturation (ICD) assay, KRAS^G12V; format: binding; settings: for S/B ratio, denaturation with and without GTP: 1 µM GTP
T1 construct: Monomer (2-188); host or cells: E. coli
Protocol: (§1) All isothermal chemical denaturation (ICD) assays were conducted in triplicates at RT using a single-step protocol with 25 µL final volume. Sample protein and ligand were added in 5 µL in a buffer (10 mM HEPES (pH 7.5), 10 mM NaCl, (v/v) 0.01% Brij 30) without denaturant. FRET-Probe (0.5 nM) was added to the assay buffer supplemented with chemical denaturant, urea (0–5 M), ethanol (0–30%) or 1-propanol (0–50%). Additionally, 0.2 mM EDTA was used in combination with alcohols.
(§2) In all ICD protein assays, time-resolved Förster resonance energy transfer (TR-FRET) signal was monitored kinetically at multiple time points during 150 min incubation. In all assays with protein binding ligands, 30 min preincubation prior denaturant addition was performed. In acid induced denaturation assay, GTP (0–2 µM) and NADH (0–50 µM) were titrated with KRAS^G12V and MDH, respectively. 1-propanol (30–50%) ICD assays were also performed for MDH in the presence of NADH (0–50 µM) and (20%) for KRAS^G12V using GTP (0–10 µM). […] Additionally, urea was tested with 1 µM GTP with KRAS^G12V.

[2] = molecular target: T2, MDH (Sus scrofa, UniProt P00346); experiment: FRET-Probe isothermal chemical denaturation (ICD) assay, MDH; format: binding; settings: 25 nM MDH
T2 construct: purchased Sigma-Aldrich (St. Louis, MO, USA)
T2 sequence (P00346 25-338): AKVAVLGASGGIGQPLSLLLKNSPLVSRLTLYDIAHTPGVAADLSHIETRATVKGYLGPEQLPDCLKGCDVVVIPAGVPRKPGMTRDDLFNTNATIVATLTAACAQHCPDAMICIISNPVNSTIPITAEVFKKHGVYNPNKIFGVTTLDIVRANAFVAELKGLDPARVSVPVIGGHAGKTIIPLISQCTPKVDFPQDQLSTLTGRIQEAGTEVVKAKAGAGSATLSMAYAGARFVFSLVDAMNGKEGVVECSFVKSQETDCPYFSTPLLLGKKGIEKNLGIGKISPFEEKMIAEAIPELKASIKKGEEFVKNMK
Protocol: as §1, §2

[3] = molecular target: T3, malate dehydrogenase (MDH) (Sus scrofa, UniProt P00346); experiment: FRET-Probe thermal shift assay (TSA), MDH with NADH; format: binding; settings: for Tm of MDH with NADH: 25 nM MDH
T3 construct: purchased Sigma-Aldrich (St. Louis, MO, USA)
T3 sequence (P00346 25-338): T2 sequence (P00346 25-338)
Protocol: All FRET-Probe TSA were conducted in triplicates using a single-step protocol, by adding the sample protein in 5 µL and FRET-Probe (0.5 nM) in 20 µL volumes. All concentrations are reported in a 25 µL final volume. Assays were performed in an assay buffer containing 10 mM HEPES (pH 7.5) supplemented with 0.001% (v/v) Triton X-100.

[4] = molecular target: MDH; parameters: method as in PMID 225321; settings: MDH/NADH interaction; cited from earlier work

Nc1ncnc2c1ncn2[C@@H]1O[C@H](COP(=O)(O)OP(=O)(O)OP(=O)(O)O)[C@@H](O)[C@H]1O [ATP]
TR-FRET signal level compared with protein alone ([1]; 50 nM KRAS^G12V, pH 5, 2 and 10 µM ATP): no change of signal level; also recorded: in the same range

Nc1nc2c(ncn2[C@@H]2O[C@H](COP(=O)(O)OP(=O)(O)OP(=O)(O)O)[C@@H](O)[C@H]2O)c(=O)[nH]1 [GTP, guanosine-5'-triphosphate]
S/B ratio, denaturation with and without GTP ([1]; 50 nM KRAS^G12V, 1 M urea, 60 min): 15.1
S/B ratio, denaturation with and without GTP ([1]; 50 nM KRAS^G12V, 2 M urea, 60 min): 20.3
EC50 ([1]; 50 nM KRAS^G12V, pH 5 denaturation buffer, 30 min): 4.5 ± 1.9 nM
EC50 ([1]; 50 nM KRAS^G12V, pH 5 denaturation buffer, 60 min): 2.6 ± 0.7 nM
EC50 ([1]; 50 nM KRAS^G12V, pH 5 denaturation buffer, 90 min): 3.5 ± 0.1 nM
EC50 ([1]; 50 nM KRAS^G12V, pH 5 denaturation buffer, 120 min): 4.6 ± 0.3 nM
EC50 ([1]; KRAS^G12V, 20% 1-propanol, 30 min): 3.6 ± 0.5 nM
EC50 ([1]; KRAS^G12V, 20% 1-propanol, 60 min): 3.8 ± 0.4 nM
EC50 ([1]; KRAS^G12V, 20% 1-propanol, 90 min): 5.2 ± 1.2 nM
EC50 ([1]; KRAS^G12V, 20% 1-propanol, 120 min): 5.2 ± 0.7 nM

NC(=O)C1=CN([C@@H]2O[C@H](COP(=O)(O)OP(=O)(O)OC[C@H]3O[C@@H](n4cnc5c(N)ncnc54)[C@H](O)[C@@H]3O)[C@@H](O)[C@H]2O)C=CC1 [NADH, reduced nicotinamide adenine dinucleotide]
EC50 ([2]; 30–50% 1-propanol, 60 min incubation): 29 to 38 µM
EC50 ([2]; pH 5 denaturation buffer, RT, 90 min incubation): 4.7 ± 0.8 µM
ligand-induced stabilization of MDH ([2]; pH 5, 5 and 50 µM NADH, RT): clear ligand-induced stabilization
Tm of MDH with NADH ([3]; 5 µM NADH): 47.9 ± 0.6 °C
Tm of MDH with NADH ([3]; 50 µM NADH): 51.7 ± 0.2 °C
Δ Tm of MDH ([3]; 5 µM NADH): 1.2 °C
Δ Tm of MDH ([3]; 50 µM NADH): 5.0 °C
Kd [4]: 3.8 µM
